System: caspase-3
Test: Caspase-3 activity in HUVECs (Example 7-2)
Format: cell-based, human
Settings: caspase-3-specific inhibitor added to samples
Procedure: With respect to the induction of endothelial cell apoptosis (active cell death) by the fas-1 domain, which had been confirmed in Example 7-1 above, the present inventors measured the activity of caspase-3, which is activated when apoptosis occurs, in the cells treated with the fas-1 domain.
HUVECs were spread onto a 100-mm plate (10 ml culture solution) with M199 medium containing 10% FBS, followed by incubation in a 37° C. incubator for 12 hours. After the incubation, the medium was removed from the plate, the cells were added with fresh medium containing 0.1% FBS and further incubated for 24 hours. The cell-containing medium was treated with 5 μM or 20 μM of the fas-1 domain (βig-h3 D-IV) prepared in Example 1. A control was treated with PBS buffer. At 12 hours and 24 hours after the treatment, the cells were harvested. The caspase-3 activity of the cells was measured with an EnzCheck Caspase-3 Assay Kit(#2) (Molecular Probe Co., Eugene, Oreg., USA). Moreover, to verify that measured values are attributed to caspase-3 activity, each of the samples was treated with DEVD-CHO (Molecular Probe Co., Eugene, Oreg., USA) as a caspase-3-specific inhibitor. The control was treated with DMSO.

inhibition of caspase-3 activities of test groups and control group: inhibited
Substance: DEVD-CHO [reference compound]
